# From ChEMBL document CHEMBL3632602, “Selenoacyclovir and Selenoganciclovir: Discovery of a New Template for Antiviral Agents” (J Med Chem, 2015)
# pEC50: −log10 of the molar value.
# Tests used:
# Human betaherpesvirus 5 = assay: Antiviral activity against Human cytomegalovirus Davis VR-807 infected in […] after 3 days by MTT assay; format: functional, organism-based; details: Human betaherpesvirus 5, Davis VR-807, 72 h
# [1] = Cytotoxicity against human HEL299 cells after 3 days by MTT assay; format: cell-based, HEL 299
# [2] = Solubility of compound in double-deionized water after 3 days by LC-MS/MS analysis; format: physicochemical
# Human alphaherpesvirus 1 = assay: Antiviral activity against Herpes simplex virus 1 strain F VR-733 infected in African green monkey Vero cells after 3 days by MTT assay; format: functional, organism-based; details: Human alphaherpesvirus 1, Strain F ATCC VR 733, Vero, 72 h
# Human alphaherpesvirus 3 = assay: Antiviral activity against Varicella-zoster virus Ellen VR-1367 infected in African green monkey Vero cells after 3 days by MTT assay; format: functional, organism-based; details: Human alphaherpesvirus 3, Ellen VR-1367, Vero, 72 h
# Human alphaherpesvirus 2 = assay: Antiviral activity against Herpes simplex virus 2 strain MS VR-540 infected in African green monkey Vero cells after 3 days by MTT assay; format: functional, organism-based; details: Human alphaherpesvirus 2, MS VR-540, Vero, 72 h
SMILES,pEC50 (Human betaherpesvirus 5),CC50 at 72 h [1],solubility at 72 h [2],pEC50 (Human alphaherpesvirus 1),pEC50 (Human alphaherpesvirus 3),pEC50 (Human alphaherpesvirus 2)
Nc1nc2c(ncn2C[Se]CCO)c(=O)[nH]1,< 4.00,> 100 µM,1060 µg/mL,5.83,< 4.00,5.20
Nc1nc2c(ncn2C[Se]C(CO)CO)c(=O)[nH]1,4.27,> 100 µM,2230 µg/mL,< 4.00,< 4.00,< 4.00
Nc1nc2c(ncn2COCCO)c(=O)[nH]1 [ACYCLOVIR],4.72,> 100 µM,3920 µg/mL,6.18,5.19,5.99
Nc1nc2c(ncn2COC(CO)CO)c(=O)[nH]1 [GANCICLOVIR],5.67,> 100 µM,4960 µg/mL,6.05,4.95,5.85
